Publication PMC4268243 (Nuclear medicine and biology, 2014)

Legend:
[1] = test system: MDA MB468 tumor xenograft; test: Biodistribution in MDA MB468 tumor-bearing SCID mice; format: in vivo
[2] = test system: SKOV3 estrogen-positive ovarian adenocarcinoma cells; test: Amino acid uptake and inhibition in SKOV3 cells; format: cell-based, human; settings: for Cell uptake: SKOV3, 30 minutes incubation
[3] = test system: rat orthotopic brain tumor model; settings: rat orthotopic brain tumor model, 60 min; cited from earlier work
DU145 tumor xenograft = test: Biodistribution in DU145 tumor-bearing SCID mice; format: in vivo; settings: listed as (R)-[^18F] FAMP 1
A549 tumor xenograft = test: Biodistribution in A549 tumor-bearing SCID mice; format: in vivo; settings: listed as (R)-[^18F] FAMP 1
[4] = test system: SCID mice xenograft tumor models; format: in vivo; settings: in most cases, over tumors and time points
[5] = 15 min post injection, listed as (R)-[^18F] FAMP 1
[6] = 30 min post injection, listed as (R)-[^18F] FAMP 1
[7] = 60 min post injection, listed as (R)-[^18F] FAMP 1
[8] = 120 min post injection, listed as (R)-[^18F] FAMP 1

Compound: CC(N)(C[18F])C(=O)O [(R)-[^18F]1] [2-amino-3-[^18F]fluoro-2-methylpropanoic acid]
- uptake in blood [1, 5]: 3.0±0.2 %ID/g
- uptake in bone [1, 5]: 2.7±0.6 %ID/g
- uptake in brain [1, 5]: 0.7±0.2 %ID/g
- uptake in heart [1, 5]: 3.9±0.6 %ID/g
- uptake in kidney [1, 5]: 17±2.3 %ID/g
- uptake in liver [1, 5]: 4.4±0.9 %ID/g
- uptake in lung [1, 5]: 5.4±0.6 %ID/g
- uptake in muscle [1, 5]: 2.2±0.8 %ID/g
- uptake in pancreas [1, 5]: 61±8.4 %ID/g
- uptake in spleen [1, 5]: 8.7±2.2 %ID/g
- uptake in tumor [1, 5]: 6.0±1.8 %ID/g
- uptake in blood [1, 6]: 2.0±0.4 %ID/g
- uptake in bone [1, 6]: 2.2±0.6 %ID/g
- uptake in brain [1, 6]: 0.8±0.1 %ID/g
- uptake in heart [1, 6]: 3.5±1.0 %ID/g
- uptake in kidney [1, 6]: 9.1±2.8 %ID/g
- uptake in liver [1, 6]: 4.5±1.0 %ID/g
- uptake in lung [1, 6]: 3.3±1.1 %ID/g
- uptake in muscle [1, 6]: 2.0±0.6 %ID/g
- uptake in pancreas [1, 6]: 39±11 %ID/g
- uptake in spleen [1, 6]: 6.5±1.1 %ID/g
- uptake in tumor [1, 6]: 5.3±1.7 %ID/g
- uptake in tumor ([1]; 60 min post injection): 4.8±1.2 %ID/g
- uptake in blood [1, 7]: 1.1±0.3 %ID/g
- uptake in bone [1, 7]: 1.7±0.5 %ID/g
- uptake in brain [1, 7]: 0.8±0.1 %ID/g
- uptake in heart [1, 7]: 3.3±0.8 %ID/g
- uptake in kidney [1, 7]: 5.0±1.1 %ID/g
- uptake in liver [1, 7]: 3.8±0.9 %ID/g
- uptake in lung [1, 7]: 2.2±0.5 %ID/g
- uptake in muscle [1, 7]: 2.0±0.6 %ID/g
- uptake in pancreas [1, 7]: 20±7.2 %ID/g
- uptake in spleen [1, 7]: 4.1±1.3 %ID/g
- uptake in blood [1, 8]: 0.5±0.2 %ID/g
- uptake in bone [1, 8]: 1.1±0.5 %ID/g
- uptake in brain [1, 8]: 0.9±0.1 %ID/g
- uptake in heart [1, 8]: 2.3±0.4 %ID/g
- uptake in kidney [1, 8]: 2.4±1.1 %ID/g
- uptake in liver [1, 8]: 4.1±0.8 %ID/g
- uptake in lung [1, 8]: 1.1±0.4 %ID/g
- uptake in muscle [1, 8]: 1.6±0.6 %ID/g
- uptake in pancreas [1, 8]: 11±4.6 %ID/g
- uptake in spleen [1, 8]: 2.2±1.1 %ID/g
- uptake in tumor [1, 8]: 3.6±0.7 %ID/g
- Cell uptake ([2]; 10 mM BCH): 7.6±0.2 % ID/5×10^5 cells
- Cell uptake ([2]; 10 mM MeAIB): 4.6±0.1 % ID/5×10^5 cells
- Cell uptake ([2]; Control (no inhibitor)): 9.2±0.2 % ID/5×10^5 cells
- inhibition of uptake by BCH ([2]; SKOV3 cells, 10 mM BCH, relative to control): 17%
- inhibition of uptake by MeAIB ([2]; SKOV3 cells, 10 mM MeAIB, relative to control): 50%
- brain uptake [3]: 0.1±0.02 %ID/g
- uptake in blood (DU145 tumor xenograft; 15 min post injection): 5.2±1.2 %ID/g
- uptake in bone (DU145 tumor xenograft; 15 min post injection): 3.9±1.0 %ID/g
- uptake in brain (DU145 tumor xenograft; 15 min post injection): 1.0±0.3 %ID/g
- uptake in heart (DU145 tumor xenograft; 15 min post injection): 5.8±1.5 %ID/g
- uptake in kidney (DU145 tumor xenograft; 15 min post injection): 26±7.5 %ID/g
- uptake in liver (DU145 tumor xenograft; 15 min post injection): 7.2±3.4 %ID/g
- uptake in lung (DU145 tumor xenograft; 15 min post injection): 7.6±1.8 %ID/g
- uptake in muscle (DU145 tumor xenograft; 15 min post injection): 2.9±0.7 %ID/g
- uptake in pancreas (DU145 tumor xenograft; 15 min post injection): 62±20 %ID/g
- uptake in spleen (DU145 tumor xenograft; 15 min post injection): 17±7.6 %ID/g
- uptake in tumor (DU145 tumor xenograft; 15 min post injection): 8.8±1.9 %ID/g
- uptake in blood (DU145 tumor xenograft; 30 min post injection): 3.7±0.3 %ID/g
- uptake in bone (DU145 tumor xenograft; 30 min post injection): 4.0±0.3 %ID/g
- uptake in brain (DU145 tumor xenograft; 30 min post injection): 1.3±0.1 %ID/g
- uptake in heart (DU145 tumor xenograft; 30 min post injection): 5.6±0.6 %ID/g
- uptake in kidney (DU145 tumor xenograft; 30 min post injection): 16±2.2 %ID/g
- uptake in liver (DU145 tumor xenograft; 30 min post injection): 6.3±0.8 %ID/g
- uptake in lung (DU145 tumor xenograft; 30 min post injection): 3.1±0.4 %ID/g
- uptake in muscle (DU145 tumor xenograft; 30 min post injection): 3.5±0.5 %ID/g
- uptake in pancreas (DU145 tumor xenograft; 30 min post injection): 52±3.8 %ID/g
- uptake in spleen (DU145 tumor xenograft; 30 min post injection): 13±1.4 %ID/g
- uptake in tumor (DU145 tumor xenograft; 30 min post injection): 8.4±1.1 %ID/g
- uptake in blood (DU145 tumor xenograft; 60 min post injection): 2.2±0.3 %ID/g
- uptake in bone (DU145 tumor xenograft; 60 min post injection): 3.2±0.7 %ID/g
- uptake in brain (DU145 tumor xenograft; 60 min post injection): 1.5±0.3 %ID/g
- uptake in heart (DU145 tumor xenograft; 60 min post injection): 4.8±1.0 %ID/g
- uptake in kidney (DU145 tumor xenograft; 60 min post injection): 10±0.8 %ID/g
- uptake in liver (DU145 tumor xenograft; 60 min post injection): 5.5±1.0 %ID/g
- uptake in lung (DU145 tumor xenograft; 60 min post injection): 2.0±0.4 %ID/g
- uptake in muscle (DU145 tumor xenograft; 60 min post injection): 3.0±0.7 %ID/g
- uptake in pancreas (DU145 tumor xenograft; 60 min post injection): 39±6.9 %ID/g
- uptake in spleen (DU145 tumor xenograft; 60 min post injection): 11±2.9 %ID/g
- uptake in tumor (DU145 tumor xenograft; 60 min post injection): 7.9±1.7 %ID/g
- uptake in blood (DU145 tumor xenograft; 120 min post injection): 1.6±0.3 %ID/g
- uptake in bone (DU145 tumor xenograft; 120 min post injection): 2.6±0.5 %ID/g
- uptake in brain (DU145 tumor xenograft; 120 min post injection): 1.6±0.2 %ID/g
- uptake in heart (DU145 tumor xenograft; 120 min post injection): 4.9±0.9 %ID/g
- uptake in kidney (DU145 tumor xenograft; 120 min post injection): 7.9±0.7 %ID/g
- uptake in liver (DU145 tumor xenograft; 120 min post injection): 3.6±0.6 %ID/g
- uptake in lung (DU145 tumor xenograft; 120 min post injection): 2.1±0.8 %ID/g
- uptake in muscle (DU145 tumor xenograft; 120 min post injection): 2.7±0.8 %ID/g
- uptake in pancreas (DU145 tumor xenograft; 120 min post injection): 27±4.5 %ID/g
- uptake in spleen (DU145 tumor xenograft; 120 min post injection): 6.0±0.9 %ID/g
- uptake in tumor (DU145 tumor xenograft; 120 min post injection): 6.8±0.8 %ID/g
- uptake in blood (A549 tumor xenograft; 15 min post injection): 2.9±0.4 %ID/g
- uptake in bone (A549 tumor xenograft; 15 min post injection): 2.6±0.6 %ID/g
- uptake in brain (A549 tumor xenograft; 15 min post injection): 0.8±0.2 %ID/g
- uptake in heart (A549 tumor xenograft; 15 min post injection): 4.4±01.0 %ID/g
- uptake in kidney (A549 tumor xenograft; 15 min post injection): 18±3.5 %ID/g
- uptake in liver (A549 tumor xenograft; 15 min post injection): 4.8±0.5 %ID/g
- uptake in lung (A549 tumor xenograft; 15 min post injection): 5.0±0.9 %ID/g
- uptake in muscle (A549 tumor xenograft; 15 min post injection): 2.0±0.4 %ID/g
- uptake in pancreas (A549 tumor xenograft; 15 min post injection): 54±14 %ID/g
- uptake in spleen (A549 tumor xenograft; 15 min post injection): 9.5±3.9 %ID/g
- uptake in tumor (A549 tumor xenograft; 15 min post injection): 9.9±1.7 %ID/g
- uptake in blood (A549 tumor xenograft; 30 min post injection): 2.0±0.2 %ID/g
- uptake in bone (A549 tumor xenograft; 30 min post injection): 2.3±0.6 %ID/g
- uptake in brain (A549 tumor xenograft; 30 min post injection): 0.9±0.2 %ID/g
- uptake in heart (A549 tumor xenograft; 30 min post injection): 3.5±1.0 %ID/g
- uptake in kidney (A549 tumor xenograft; 30 min post injection): 10±1.9 %ID/g
- uptake in liver (A549 tumor xenograft; 30 min post injection): 5.7±1.2 %ID/g
- uptake in lung (A549 tumor xenograft; 30 min post injection): 3.1±1.0 %ID/g
- uptake in muscle (A549 tumor xenograft; 30 min post injection): 2.0±0.6 %ID/g
- uptake in pancreas (A549 tumor xenograft; 30 min post injection): 43±11 %ID/g
- uptake in spleen (A549 tumor xenograft; 30 min post injection): 7.8±1.6 %ID/g
- uptake in tumor (A549 tumor xenograft; 30 min post injection): 7.5±1.9 %ID/g
- uptake in blood (A549 tumor xenograft; 60 min post injection): 1.3±0.1 %ID/g
- uptake in bone (A549 tumor xenograft; 60 min post injection): 2.0±0.6 %ID/g
- uptake in brain (A549 tumor xenograft; 60 min post injection): 1.1±0.3 %ID/g
- uptake in heart (A549 tumor xenograft; 60 min post injection): 3.5±0.9 %ID/g
- uptake in kidney (A549 tumor xenograft; 60 min post injection): 6.6±1.0 %ID/g
- uptake in liver (A549 tumor xenograft; 60 min post injection): 5.3±1.1 %ID/g
- uptake in lung (A549 tumor xenograft; 60 min post injection): 2.3±0.5 %ID/g
- uptake in muscle (A549 tumor xenograft; 60 min post injection): 1.8±0.2 %ID/g
- uptake in pancreas (A549 tumor xenograft; 60 min post injection): 28±6.3 %ID/g
- uptake in spleen (A549 tumor xenograft; 60 min post injection): 5.1±1.8 %ID/g
- uptake in tumor (A549 tumor xenograft; 60 min post injection): 7.7±1.9 %ID/g
- uptake in blood (A549 tumor xenograft; 120 min post injection): 1.3±0.9 %ID/g
- uptake in bone (A549 tumor xenograft; 120 min post injection): 2.2±1.1 %ID/g
- uptake in brain (A549 tumor xenograft; 120 min post injection): 1.8±0.9 %ID/g
- uptake in heart (A549 tumor xenograft; 120 min post injection): 3.9±1.5 %ID/g
- uptake in kidney (A549 tumor xenograft; 120 min post injection): 5.5±3.1 %ID/g
- uptake in liver (A549 tumor xenograft; 120 min post injection): 7.1±2.4 %ID/g
- uptake in lung (A549 tumor xenograft; 120 min post injection): 1.9±0.6 %ID/g
- uptake in muscle (A549 tumor xenograft; 120 min post injection): 2.3±1.2 %ID/g
- uptake in pancreas (A549 tumor xenograft; 120 min post injection): 20±7.1 %ID/g
- uptake in spleen (A549 tumor xenograft; 120 min post injection): 4.9±3.1 %ID/g
- uptake in tumor (A549 tumor xenograft; 120 min post injection): 8.8±4.8 %ID/g
- ratio of tumor to muscle [4]: above 2.5
